Test results as given in US6967215B2, “Tetrahydrocarbazoles, a process for the preparation of those compounds, and the use thereof” (Ciba Specialty Chemicals Corporation, priority 2000, dated 2005).

How the values were obtained:
Assay in all cases: MIC, microtitre dilution test (growth by optical density at 620 nm)
Type in all cases: cell-based
[1] = tested on: Staphylococcus hominis DMS 20328
Protocol: (§1) Casein/soybean flour peptone bouillon for the preparation of pre-cultures of the test bacteria and yeast.
(§2) The test substances are predissolved in dimethyl sulfoxide (DMSO) and tested in a dilution series of 1:2.
(§3) Bacteria and yeast are cultured overnight in CASO bouillon, the mould is cultured overnight on mycological slant agar, and washed off with 10 ml of 0.85% sodium chloride solution (+0.1% TritonX-100).
(§4) All the test organisms are adjusted to an organism count of 1-5×10^6 CFU/ml using 0.85% sodium chloride solution.
(§5) The test substances are pre-pipetted into microtitre plates in an amount of 8 μl per well.
(§6) Pre-diluted organism suspensions are diluted 1:100 in CASO bouillon (bacteria and yeast) or Sabouraud 2% glucose bouillon (mould) and are added in an amount of 192 μl per well to the test substances.
(§7) The test batches are incubated for 48 hours at 37° C. (bacteria and yeast) or for 5 days at 28° C. (mould).
(§8) After incubation, the growth is evaluated by reference to the turbidity of the test batches (optical density) at 620 nm in a microplate reader.
(§9) The minimum inhibitory concentration (MIC value) is the concentration of substance at which (compared with the growth of the control) an appreciable inhibition of growth (≦20% growth) of the test organisms is ascertained.
(§10) One microtitre plate is used for each test organism and substance concentration. All the substances are tested in duplicate.

[2] = tested on: Escherichia coli NCTC 8196; conditions: for MIC [ppm] E. coli: Table 2, Escherichia coli; for MIC [ppm] E. coil: Table 5
Protocol: as §1, §2, §3, §4, §5, §6, §7, §8, §9, §10

[3] = tested on: P. aeruginosa; conditions: Table 5
Protocol: All the test organisms are adjusted to an organism count of 1-5×10^6 CFU/ml using 0.85% sodium chloride solution. The test substances are pre-pipetted into microtitre plates in an amount of 8 μl per well. Pre-diluted organism suspensions are diluted 1:100 in CASO bouillon (bacteria and yeast) or Sabouraud 2% glucose bouillon (mould) and are added in an amount of 192 μl per well to the test substances. The test batches are incubated for 48 hours at 37° C. (bacteria and yeast) or for 5 days at 28° C. (mould). After incubation, the growth is evaluated by reference to the turbidity of the test batches (optical density) at 620 nm in a microplate reader. The minimum inhibitory concentration (MIC value) is the concentration of substance at which (compared with the growth of the control) an appreciable inhibition of growth (≦20% growth) of the test organisms is ascertained. One microtitre plate is used for each test organism and substance concentration. All the substances are tested in duplicate.

[4] = tested on: Aspergillus niger ATCC 6175; conditions: Table 5
Protocol: Nutrient: Mycological slant agar for the pre-culture of moulds [table] The test substances are predissolved in dimethyl sulfoxide (DMSO) and tested in a dilution series of 1:2. Bacteria and yeast are cultured overnight in CASO bouillon, the mould is cultured overnight on mycological slant agar, and washed off with 10 ml of 0.85% sodium chloride solution (+0.1% TritonX-100). All the test organisms are adjusted to an organism count of 1-5×10^6 CFU/ml using 0.85% sodium chloride solution. The test substances are pre-pipetted into microtitre plates in an amount of 8 μl per well. Pre-diluted organism suspensions are diluted 1:100 in CASO bouillon (bacteria and yeast) or Sabouraud 2% glucose bouillon (mould) and are added in an amount of 192 μl per well to the test substances. The test batches are incubated for 48 hours at 37° C. (bacteria and yeast) or for 5 days at 28° C. (mould). After incubation, the growth is evaluated by reference to the turbidity of the test batches (optical density) at 620 nm in a microplate reader. The minimum inhibitory concentration (MIC value) is the concentration of substance at which (compared with the growth of the control) an appreciable inhibition of growth (≦20% growth) of the test organisms is ascertained. One microtitre plate is used for each test organism and substance concentration. All the substances are tested in duplicate.

[5] = tested on: Corynebacterium xerosis ATCC 373; conditions: Table 3
Protocol: as §1, §2, §3, §4, §5, §6, §7, §8, §9, §10

[6] = tested on: Staphylococcus epidermidis ATCC 12228; conditions: Table 3
Protocol: as §1, §2, §3, §4, §5, §6, §7, §8, §9, §10

[7] = tested on: Enterococcus hirae ATCC 10541; conditions: Table 3
Protocol: as §1, §2, §3, §4, §5, §6, §7, §8, §9, §10

[8] = tested on: Micrococcus luteus ATCC 9341; conditions: Table 3
Protocol: as §1, §2, §3, §4, §5, §6, §7, §8, §9, §10

[9] = tested on: Candida albicans ATCC 10259; conditions: Table 3
Protocol: as §1, §2, §3, §4, §5, §6, §7, §8, §9, §10

[10] = Table 2, Staphylococcus hominis DMS 20328

SMILES	MIC [ppm] P. aeruginosa [3] [ppm]	MIC [ppm] A. niger [4] [ppm]	MIC [ppm] S. hominis ([1]; Table 5) [ppm]	MIC [ppm] E. coil [2] [ppm]	further results
CCCC1CCC2c3c([nH]c4ccc(OC)cc34)C3C(=O)N(C)C(=O)C3C2C1 (stereo not shown) [Compound 174]	–	–	–	–	MIC [ppm] S. hominis [1, 10]: 30 ppm; MIC [ppm] E. coli [2]: >120 ppm
CCC(C)(C)C1CCC2c3c([nH]c4ccc(OC)cc34)C3C(=O)N(C)C(=O)C3C2C1 (stereo not shown) [Compound 175]	–	–	–	–	MIC [ppm] S. hominis [1, 10]: >120 ppm; MIC [ppm] E. coli [2]: >120 ppm
CCN1CCC2c3c([nH]c4ccc(OC)cc34)C3C(=O)N(C)C(=O)C3C2C1 (stereo not shown) [Compound 176]	–	–	–	–	MIC [ppm] S. hominis [1, 10]: >120 ppm; MIC [ppm] E. coli [2]: >120 ppm
COc1ccc2[nH]c3c(c2c1)C1CCN(Cc2ccccc2)CC1C1C(=O)N(C)C(=O)C31 (stereo not shown) [Compound 177]	–	–	–	–	MIC [ppm] S. hominis [1, 10]: 120 ppm; MIC [ppm] E. coli [2]: 120 ppm
COc1ccc2[nH]c3c(c2c1)C1CCN(C)CC1C1C(=O)N(C)C(=O)C31 (stereo not shown) [Compound 178]	–	–	–	–	MIC [ppm] S. hominis [1, 10]: >120 ppm; MIC [ppm] E. coli [2]: >120 ppm
COc1ccc2[nH]c3c(c2c1)C1CCCCCCCCCCC1C1C(=O)N(C)C(=O)C31 (stereo not shown) [Compound 179]	–	–	–	–	MIC [ppm] S. hominis [1, 10]: >120 ppm; MIC [ppm] E. coli [2]: >120 ppm
COc1ccc2[nH]c3c(c2c1)C1CCCCCCC1C1C(=O)N(C)C(=O)C31 (stereo not shown) [Compound 180]	–	–	–	–	MIC [ppm] S. hominis [1, 10]: >120 ppm; MIC [ppm] E. coli [2]: >120 ppm
COc1ccc2[nH]c3c(c2c1)C1CC(C)(C)CC(C)(C)C1C1C(=O)N(C)C(=O)C31 (stereo not shown) [Compound 181]	–	–	–	–	MIC [ppm] S. hominis [1, 10]: >120 ppm; MIC [ppm] E. coli [2]: >120 ppm
O=C1NC(=O)C2C1c1[nH]c3ccccc3c1C1CC3CCCCC3CC12 (stereo not shown) [Compound 183]	>120	>120	15	>120	–
CCCN1CCC2c3c([nH]c4cccc(C)c34)C3C(=O)NC(=O)C3C2C1 (stereo not shown) [Compound 186]	120	>120	>120	>120	–
COc1cccc2[nH]c3c(c12)C1CCCCCC1C1C(=O)NC(=O)C31 (stereo not shown) [Compound 187]	60	>120	30	>120	–
COc1cccc2[nH]c3c(c12)C1CCCCCCCCCCC1C1C(=O)NC(=O)C31 (stereo not shown) [Compound 188]	>120	>120	15	>120	–
CC(C)NCC(O)COc1cccc2[nH]c3c(c12)C1CCCCCC1C1C(=O)NC(=O)C31 (stereo not shown) [Compound 189]	>120	>120	15	120	–
CCCN1CCC2c3c([nH]c4cccc(OCC(O)CNC(C)C)c34)C3C(=O)NC(=O)C3C2C1 (stereo not shown) [Compound 190]	>120	>120	>120	>120	–
CCCN1CCC2c3c([nH]c4ccc(F)cc34)C3C(=O)NC(=O)C3C2C1 (stereo not shown) [Compound 193]	>120	>120	>120	60	–
CCCN1CCC2c3c([nH]c4cc(Cl)ccc34)C3C(=O)NC(=O)C3C2C1 (stereo not shown) [Compound 199]	>120	>120	120	>120	–
CC1(C)CC2c3c([nH]c4ccccc34)C3C(=O)NC(=O)C3C2C(C)(C)C1 (stereo not shown) [compound 63]	–	–	–	–	MIC Corynebacterium xerosis ATCC 373 [5]: ≦3.75 ppm; MIC Staphylococcus epidermidis ATCC 12228 [6]: ≦3.75 ppm; MIC Staphylococcus hominis DSM 20328 ([1]; Table 3): 7.5 ppm; MIC Enterococcus hirae ATCC 10541 [7]: 7.5 ppm; MIC Micrococcus luteus ATCC 9341 [8]: ≦3.75 ppm; MIC Candida albicans ATCC 10259 [9]: >120 ppm

Now from value to compound, other results behind:

MIC [ppm] P. aeruginosa [3] [ppm]	MIC [ppm] A. niger [4] [ppm]	MIC [ppm] S. hominis ([1]; Table 5) [ppm]	MIC [ppm] E. coil [2] [ppm]	SMILES	further results
60	>120	>120	>120	CCCN1CCC2c3c([nH]c4cccc(C(=O)OC)c34)C3C(=O)NC(=O)C3C2C1 (stereo not shown) [Compound 201]	–
>120	>120	>120	>120	CCCN1CCC2c3c([nH]c4cc(C)ccc34)C3C(=O)NC(=O)C3C2C1 (stereo not shown) [Compound 203]	–
120	>120	>120	>120	CCCN1CCC2c3c([nH]c4cc(F)ccc34)C3C(=O)NC(=O)C3C2C1 (stereo not shown) [Compound 207]	–
120	>120	>120	120	CCCN1CCC2c3c([nH]c4c(F)cccc34)C3C(=O)NC(=O)C3C2C1 (stereo not shown) [Compound 211]	–
120	>120	30	60	CCCN1CCC2c3c([nH]c4cc(C(F)(F)F)ccc34)C3C(=O)NC(=O)C3C2C1 (stereo not shown) [Compound 215]	–
>120	>120	>120	>120	CCCN1CCC2c3c([nH]c4cc(F)c(F)cc34)C3C(=O)NC(=O)C3C2C1 (stereo not shown) [Compound 219]	–
>120	>120	120	120	CCCN1CCC2c3c([nH]c4c(C)cccc34)C3C(=O)NC(=O)C3C2C1 (stereo not shown) [Compound 222]	–
120	>120	>120	>120	CCCN1CCC2c3c([nH]c4cccc(Cl)c34)C3C(=O)NC(=O)C3C2C1 (stereo not shown) [Compound 224]	–
>120	>120	120	120	CCCN1CCC2c3c([nH]c4cccc(F)c34)C3C(=O)NC(=O)C3C2C1 (stereo not shown) [Compound 226]	–
>120	>120	>120	>120	CCCN1CCC2c3c([nH]c4c(OC)cccc34)C3C(=O)NC(=O)C3C2C1 (stereo not shown) [Compound 229]	–
120	>120	120	>120	CCCN1CCC2c3c([nH]c4cc(OC)ccc34)C3C(=O)NC(=O)C3C2C1 (stereo not shown) [Compound 231]	–
>120	>120	120	>120	CCCN1CCC2c3c([nH]c4ccc(C(=O)OC)cc34)C3C(=O)NC(=O)C3C2C1 (stereo not shown) [Compound 235]	–
>120	>120	>120	>120	CCCN1CCC2c3c([nH]c4cc(OC)c(OC)cc34)C3C(=O)NC(=O)C3C2C1 (stereo not shown) [Compound 238]	–
